Reference: patent publication US20050282745A1, “Non-mammalian GnRH analogs and uses thereof in regulation of fertility and pregnancy” (priority 2001, published 2005)
Non-standard residues stand in square brackets, D forms with d. Residues, ends and D or L forms follow the SMILES beside them. pGlu = O=C1CC[C@@H](C(=O)O)N1; azaGly = NNC(=O)O

Tests used:
[1] = target: baboon ovary GnRH receptor; assay: Baboon ovary membrane GnRH receptor binding; details: baboon ovary membranes; read-out: GnRH receptor affinity
Method: The receptor binding activity of newly synthesized non-mammalian GnRH analogs was studied in ovarian and uterine tissues. […] The ovaries of the three baboons were extracted and the cytosolic and membrane fractions were recovered for the tissues. The membrane fraction from one animal was titred for GnRH receptor binding activity using D-Arg(6)-chicken II GnRH-aza-Gly(10)-amide radiolabeled ligand. Receptors were clearly demonstrable even at 4 μg membrane protein/tube. […] The chicken II GnRH analog (SEQ ID NO: 2) had the highest affinity for any GnRH analog reported to date.

[2] = system: human term placental explants; assay: Static explant culture, release of hCG, progesterone, PGE2; assay type: cell-based
Description: The biological activity of the newly synthesized non-mammalian GnRH analogs was studied using a static implant culture system. This system allows for inexpensive extended activity studies. Mammalian GnRH action on the human placenta release of hCG, progesterone and prostaglandins were defined using this system. Replicate cultures were studied, thus allowing for comparison of different doses of each non-mammalian GnRH analog to mammalian GnRH (SEQ ID NO: 5), as well as direct competition assays. […] These studies were repeated using different human placentas. Siler-Khodr T M, Khodr G S, Valenzuela G, Rhode J 1986 Gonadotropin-releasing hormone effects on placental hormones during gestation: II. Progesterone, estrone, estradiol and estriol. Biol Reprod 34:255-264; Siler-Khodr T M, Khodr G S, Valenzuela G, Rhode J 1986 Gonadotropin-releasing hormone effects on placental hormones during gestation: 1 Alpha-human chorionic gonadotropin, human chorionic gonadotropin and human chorionic somatomammotropin. Biol Reprod 34:245-254; Siler-Khodr T M, Khodr G S, Valenzuela G, Harper J, Rhode J 1986 GnRH effects on placental hormones during gestation. 111 Prostaglandin E, prostaglandin F, and 13, 14-dihydro-15-keto-prostaglandin F. Biol Reprod 35:312-319.
In these and additional studies, an explant culture system was used to determine the effect of mammalian GnRH (SEQ ID NO: 5), chicken II GnRH (SEQ ID NO: 6), or the D-Arg(6)-chicken II GnRH-aza-Gly(10)-amide analog (SEQ ID NO: 2) on the release of the hCG, progesterone, and prostaglandin E2. Human term placentas were dissected free of membranes, minced into fragments of 5 mm, rinsed in medium, and a total weight of ˜100 mg (20 explants) was placed on a sterile filter paper resting on an organ culture grid such that they touched the surface of the culture medium, but were not immersed in it. The medium contained penicillin, streptomycin, and fungizone at 100 U/mL, 100 μg/mL, and 2.5 μg/mL respectively with and without varying doses of GnRH isoforms or analogs was added to each Petri dish. Triplicate chambers for each media were made and incubated at 37 C in a humidified chamber with an atmosphere of 5% CO2 and 95% air. Spent media were collected and replaced after 2 hours, 24 hours, and 48 hour of culture and stored frozen at −20° C. until assayed for hormones. HCG, progesterone, and PGE2 were measured using specific double antibody procedures as described previously. The chicken II GnRH analog (SEQ ID NO: 2) was studied using four different human term placentas, and the native chicken II GnRH isoform was also studied using one human term placenta. Gibbons J M, Mitnick M, Chieffo V 1975 In vitro biosynthesis, of TSH- and LH-releasing factors by the human placenta. Am J Obstet Gynecol 121:127-131.

[3] = target: chorionic peptidase-1 (C-ase-1); assay: C-ase-1 enzyme activity assay, competition for degradation of GnRH; details: competition for degradation of mammalian GnRH, Example III
Method: Using the incubation system developed for the C-ase-1 activity, the degradation of each analog was tested. […] These studies were done using the C-ase-1 enzyme activity assay as described previously. […] The product formed was calculated by subtraction, and its inverse plotted against the inverse of the original substrate concentrations to determine the nature of the competition. The Ki was to be determined by plotting the inverse of the product that formed verses the inhibitor used.
The concentration of the product of the degraded GnRH was quantified by subtracting the remaining mammalian GnRH from the starting concentrations of mammalian GnRH. […] The Ks for the degradation of mammalian GnRH was calculated from the x axis intercept using Lineweaver-Burke double reciprocal plot of the concentration of the product formed versus the concentration of the substrate used.
The reaction was stopped by heating at 85° C. for 10 minutes. The remaining GnRH was determined using a specific radioimmunoassay. The formation of product, i.e., the N-terminal nonapeptide of GnRH, was calculated by subtraction and its inverse was plotted versus the inverse of the initial substrate to determine the Ks of the reaction. […] The relative potency of each analog was compared.
Using the incubation system developed for the C-ase-1 activity, the degradation of each analog was studied. […] The inverse of the product was plotted against the inverse of the original substrate concentrations to determine Ks of the competition. The Ki was determined by plotting the inverse of the product formed verses the inhibitor used.

rhesus monkey = assay: Contraceptive activity in mated rhesus monkeys, osmotic mini-pump; assay type: in vivo
Description: In these studies we examined the effect of a stable analog of chicken II GnRH on ovarian steroidogenesis, implantation and maintainence of pregnancy in the rhesus monkey. We administered this chicken II GnRH analog (SEQ ID NO: 2) or saline via osmotic mini-pumps from Day 1-6, Day 6-11 or Day 11-17 to regularly cycling monkeys mated with fertile males around the time of ovulation. Circulating estradiol (E2) and progesterone (P) in the luteal phase was observed as well as cycle length in this and subsequent cycle. Implantation and pregnancy were confirmed by circulating CG and continued progesterone production. […] In animals treated on day 6-11 or days 11-17, no effect on luteinization or cycle length was noted; and two of five (40.0%), and one of three animals (33.3%), respectively, implanted with normal pregnancies resulting.

[4] = target: baboon endometrium (stroma and epithelium) receptor; assay: Baboon endometrium receptor binding; details: read-out: receptor affinity
Description: Due to the limited number of cells it was not possible to precisely define the affinity of this receptor.

[5] = system: baboon ovarian enzymatic activity
Method: In these studies the enzyme was in the ovarian extract.
In this assay, following incubation of the enzyme and GnRH, with and without the chosen analog, the reaction was stopped by heating and the remaining GnRH substrate was quantified by radioimmunoassay. The product formed is calculated by subtraction, and its inverse plotted against the inverse of the original substrate concentrations to determine the nature of the competition. The Ki was determined by plotting the inverse of the product formed versus the inhibitor used.

[6] = system: baboon uterine tissue GnRH receptor; assay: Baboon uterine tissue GnRH receptor binding
Description: These chicken II GnRH analogs (SEQ ID NO: 2) may have particular applicability for regulation of implantation and in uterine tissue conditions, such as endometriosis, abnormal uterine bleeding, and leiomyomas. Thus, high affinity receptors for chicken II GnRH analogs (SEQ ID NO: 2) have been defined in baboon ovary and uterus tissues.

SMILES: N=C(N)NCCC[C@@H](NC(=O)[C@H](Cc1c[nH]cn1)NC(=O)[C@H](CO)NC(=O)[C@H](Cc1c[nH]c2ccccc12)NC(=O)[C@H](Cc1c[nH]cn1)NC(=O)[C@@H]1CCC(=O)N1)C(=O)N[C@@H](Cc1c[nH]c2ccccc12)C(=O)N[C@@H](Cc1ccc(O)cc1)C(=O)N1CCC[C@H]1C(=O)NNC(N)=O [D-Arg(6)-chicken II GnRH-aza-Gly(10)-amide] ([pGlu]HWSH[dR]WYP[azaGly]-NH2)
- Kd [1]: 10 nM
- progesterone release at higher concentrations [2]: also inhibited
- effect on hCG at higher concentrations ([2]; 1-9 μM): inhibition of hCG
- PGE2 release ([2]; 2 and 24 hours): not significantly changed
- hCG release after 2, 24 and 48 hours of treatment ([2]; P<0.05): significant dose-related inhibition
- stimulation of hCG ([2]; first two hours, lowest concentration 250 nM): as much as a three fold stimulation
- hCG in presence of exogenous GnRH ([2]; three placentas, later studies): inhibition of hCG
- Ki [3]: > 400 nM
- pregnancies (rhesus monkey; treated Day 1-6): no pregnancies resulted
- effect on progesterone production or cycle length (rhesus monkey; treated day 1-6): no significant effect
- animals implanted with normal pregnancies (rhesus monkey; treated day 6-11, two of five): 40.0%
- effect on luteinization or cycle length (rhesus monkey; treated day 6-11 or days 11-17): no effect
- animals implanted with normal pregnancies (rhesus monkey; treated days 11-17, one of three): 33.3%
- Kd [4]: ~60 nM
- stability compared with mammalian GnRH [5]: more than 50 times
- Ki ([5]; competition with degradation of mammalian GnRH): ≥ 1500 nM
- binding affinity, in words [6]: high binding affinity
